From patent US9216169B2, “Pharmaceutical composition comprising candesartan or ester thereof and chlortalidone, and use thereof” (TIANJIN INSTITUTE OF PHARMACEUTICAL RESEARCH, priority 2011, dated 2015)
Several values for one entry are separate records, joined by “and”; a condition that tells them apart may be missing. Equal values may be shown once.

Columns and labels:
patients = settings: study in 1714 patients; cited from earlier work
[1] = clinical studies; cited from earlier work
[2] = test system: Spontaneously hypertensive rats (SHR); experiment: SBP of SHR by Tail-Cuff method, first administration and continuous administration for 14 days (Examples 8-12); format: in vivo, rat; settings: for AUC0-24h: after first administration
Protocol: (§1) Spontaneously hypertensive rats (SHR), male, are provided by Beijing Vital River Laboratory Animal Technology Co., Ltd. The number of animal production license is SCXK (Jing) 2007-0001. Animals are raised in an observation room at the room temperature of 25±2° C. controlled by central air-conditioning system and with artificial lighting of 12 h/day. The animals are raised in separate cages sized 43×27×18 cm with 4 animals for each cage. The rats are free access to water and are fed with block fodder everyday, and the water supply is refreshed once a day. The temperature of the room for measuring the blood pressure is 26±2° C.
(§2) The blood pressure is measured by Tail-Cuff method and the hear rate is measured according to the pulse frequency. Animals are pre-trained for the blood pressure measurement for more than 2 weeks so as to adapt to the environment of measurement. Animals are placed in a isothermal bag at 37° C. to be prewarmed for 5 to 10 min for formal measurement. Blood pressures of the rats are measured from tail arteries for 2 to 3 times at rest states, and an average value is taken as each blood pressure measured value. All data are collected and preserved by a computer.
SHRs with systolic blood pressures (SBPs)>190 mmHg are selected for experiment.
Rats are randomly divided into 20 groups according to their blood pressures with each group having 8-10 rats. Animals are fasted overnight and measured for the blood pressure of pre-administration at the day of experiment, and then administered drugs in accordance with the following method:
The single-drug group is intragastrically administered candesartan (Can) or chlorthalidone (Chl), with the dosage of Can of 0.1, 0.2, 0.4 mg/kg respectively and the dosage of Chl of 0.3125, 0.625, 1.25 mg/kg respectively;
According to the clinical single-drug specification, the ratios of Can+Chl are set as follows:
For the ratio of Can:Chl=1:6.25, one dose of 0.1+0.625 mg/kg is set;
For the ratio of Can:Chl=1:3.125, two doses of 0.2+0.625 and 0.4+1.25 mg/kg are set;
For the ratio of Can:Chl=1.28:1, one dose of 0.4+0.3125 mg/kg is set;
For the ratio of Can:Chl=2.56:1, one dose of 0.4+0.15625 mg/kg is set;
The administration volumes are all 5 mL/kg. Rats are continuously administered for 14 days. SBPs are measured 2, 4, 8, 12 and 24 hours after the first administration. On the day of 3, 7, 14 days after administration, the blood pressures are measured before administration and 5 hours after administration. Areas under blood pressure reduction-time curve from 0 to 24 h and from 0 to 14 days (AUC0-24h, AUC0-14d) are calculated.
(§3) The calculated results are expressed as mean±standard error ( x±SE); statistical treatment is performed using unpaired t test between groups to compare the significance of the average difference; the interaction between drugs are determined by using factorial analysis of variance, and P<0.05 means the difference has statistical significance.

[3] = test system: Spontaneously hypertensive rats (SHR); experiment: SBP of SHR by Tail-Cuff method, continuous intragastric administration for 8 days (Examples 1-7); format: in vivo, rat; settings: for maximum reduction of the blood pressure / SBP / SBP difference value compared with the basic value / AUC0-24h (area under blood pressure reduction-time curve): Can 0.36 mg/kg i.g. 8 days; for maximum reduction of the blood pressure: 0-24 h after last administration; for AUC0-24h (area under blood pressure reduction-time curve): after last administration
Protocol: as §1, §2
SHRs with systolic blood pressures (SBPs) >190 mmHg are selected for experiment.
Rats are randomly divided into 14 groups according to their blood pressures with each group having 7 rats. Animals are fasted overnight and measured for the blood pressure of pre-administration at the day of experiment, and then administered drugs in accordance with the following method:
The single-drug group is intragastrically administered candesartan (Can) or chlorthalidone (Chl), with the dosage of Can of 0.36 mg/kg and the dosages of Chl of 0.0675, 0.36, 0.54, 0.72, 1.125 and 2.25 mg/kg respectively;
The pharmaceutical composition is administered with 6 different doses (denoted by F1, F2, F3, F4, F5 and F6 respectively). Specifically, the ratios of the dosages of Can+Chl in all pharmaceutical compositions are:
The administration volumes are all 5 ml/kg.
Rats are continuously administered for 8 days. SBPs are measured 2, 4, 8, 12 and 24 hours after the last administration. The area under blood pressure reduction-time curve from 0 to 24 h (AUC0-24) and the maximum blood pressure reduction value are calculated.
as §3

[4] = 25-50 mg/d of hydrochlorothiazide; clinical studies; cited from earlier work
[5] = listed as candesartan cilexetil

## CCOc1nc2cccc(C(=O)O)c2n1Cc1ccc(-c2ccccc2-c2nc(=O)o[nH]2)cc1 [azilsartan]
patients
  reduction of SBP compared with the basic value: 12.1-15.9 mmHg

## NCCCC[C@H](N[C@@H](CCc1ccccc1)C(=O)O)C(=O)N1CCC[C@H]1C(=O)O [lisinopril]
[1]
  valid control rate of blood pressure: 61.2%

## CCOc1nc2cccc(C(=O)OC(C)OC(=O)OC3CCCCC3)c2n1Cc1ccc(-c2ccccc2-c2nn[nH]n2)cc1 (stereo not shown) [Can, Candesartan cilexetil]
[2]; Can 0.1 mg/kg i.g. for 14 days
  AUC0-14d: −149.9 mmHg · d
[2]; Can 0.1 mg/kg i.g.
  AUC0-24h: −209.1 mmHg · h
[2]; Can 0.2 mg/kg i.g. for 14 days
  AUC0-14d: −173.1 mmHg · d
[2]; Can 0.2 mg/kg i.g.
  AUC0-24h: −237.7 mmHg · h
[2]; Can 0.4 mg/kg i.g. for 14 days
  AUC0-14d: −227.3 mmHg · d
[2]; Can 0.4 mg/kg i.g.
  AUC0-24h: −326.0 mmHg · h and −326 mmHg · h
[3]
  maximum reduction of the blood pressure: −19.0 mmHg
  AUC0-24h (area under blood pressure reduction-time curve): −127.0 mmHg · h
[3]; [5]
  maximum reduction of the blood pressure: 19.0 mmHg
  AUC0-24h (area under blood pressure reduction-time curve): −127 mmHg · h
[3]; 2 h after last administration
  SBP: 192 mmHg
  SBP difference value compared with the basic value: (−11.0 mmHg
[3]; 4 h after last administration
  SBP: 185 mmHg
  SBP difference value compared with the basic value: (−17.7 mmHg
[3]; 8 h after last administration
  SBP: 196 mmHg
  SBP difference value compared with the basic value: (−7.3 mmHg
[3]; 12 h after last administration
  SBP: 199 mmHg
  SBP difference value compared with the basic value: (−3.7 mmHg
[3]; 24 h after last administration
  SBP: 204 mmHg
  SBP difference value compared with the basic value: (1.4 mmHg
[3]; pre-administration
  SBP: 201 mmHg
  SBP difference value compared with the basic value: (−2.0 mmHg
[3]; Can 0.36 mg/kg oral
  period after administration with significant reduction of SBP: 2 to 8 h
  time at which the antihypertensive effect takes effect after administration: 2 h

## NS(=O)(=O)c1cc2c(cc1Cl)NCNS2(=O)=O [hydrochlorothiazide, Hydrochlorothiazide]
[4]
  lowering of 24-hour blood pressure: 7.4 mmHg
  lowering of night-time blood pressure: 6.4 mmHg
